Values joined by “and” are separate entries in the source; they are usually repeats but may differ in a detail not shown here. Identical values can stand only once. Counter-ions that a name gives are not always drawn. Like-named read-outs stand apart in the source and are kept apart here.
Experiments:
[1] = system: A549 (lung adenocarcinoma); conditions: 10 μM, 72 hours
Protocol: (§1) These cells were seeded at an amount of 2×10^6 cells, and then added with the culture medium for cultivating the cells to a volume of 10 mL, followed by cultivation for 2 to 3 days. After counting the cell number, these cells were respectively plated in a 96-well plate, in which each well has a fixed cell number of 3000 and a volume of 100 μL.
(§2) After removing the culture medium in the 96-well plate, each well was added with 100 μL of 10 μM commercial drug and then placed for 72 hours. Thereafter, each well was further added with 100 μL of a diluted WST-1 solution (the dilution ratio for the culture medium: WST-1 stock solution (wt/wt) is 9:1).

[2] = system: liver cancer cells (HepG2); conditions: for Increased tumor volume, Mean / Volume, Mean / Increased tumor volume / L (longest diameter of the tumor) / Volume / W (shortest diameter of the tumor) / Weight: intraperitoneal daily; for Increased tumor volume, Mean / Volume, Mean: mean of 3 mice; for Increased tumor volume / L (longest diameter of the tumor) / Volume / W (shortest diameter of the tumor) / Weight: mice A, B, C
Protocol: This experiment was performed with female BALB/cAnN.Cg-Foxn1nu/CrlNarl mice with a weight of around 21±1 gas samples. After subcutaneous injection of liver cancer cells (HepG2), the mice were randomly divided into three groups based on the test drug, i.e., normal control group, low dosage group (100 mg/kg/day) and high dosage group (200 mg/kg/day). After the tumor was grown to be over 100 mm^3, the mice were treated with the drug via intraperitoneal injection daily. The tumor size was measured two times per week. The formula for determining the tumor size was as follows: (L×W^2)/2, in which L represents the longest diameter of the tumor and W represents the shortest diameter of the tumor.

[3] = system: Cervical cancer; conditions: summary over cell lines, 10 μM, 72 hours
Protocol: as §1, §2

[4] = system: Hep3B (hepatocellular carcinoma); conditions: 10 μM, 72 hours
Protocol: as §1, §2
(§3) Each cancer cell inhibitory experiment was repeated for 4 times, followed by calculation of the mean values thereof, which were shown in the following tables.

[5] = system: various cancer cells; conditions: Table 18, FIG. 1
Protocol: as §1, §2

[6] = system: Breast cancer; conditions: summary over cell lines, 10 μM, 72 hours
Protocol: as §1, §2

[7] = system: T24; conditions: 10 μM, 72 hours
Protocol: as §1, §2, §3

[8] = system: HEK 293 (kidney); conditions: 10 μM, 72 hours
Protocol: as §1, §2
Each cell inhibitory experiment was repeated for 4 times, followed by calculation of the mean values thereof, which were shown in the following tables.

[9] = system: TSGH (urinary bladder carcinoma); conditions: 10 μM, 72 hours
Protocol: as §1, §2

[10] = system: TOV-21G; conditions: 10 μM, 72 hours
Protocol: as §1, §2

[11] = system: U2OS; conditions: 10 μM, 72 hours
Protocol: as §1, §2

[12] = system: Colorectal cancer; conditions: summary over cell lines, 10 μM, 72 hours
Protocol: as §1, §2

[13] = High dosage (200 mg/kg/day), Fifth measurement
[14] = High dosage (200 mg/kg/day), First measurement
[15] = High dosage (200 mg/kg/day), First measurement, hydrochloride
[16] = High dosage (200 mg/kg/day), Fourth measurement
[17] = High dosage (200 mg/kg/day), Second measurement
[18] = High dosage (200 mg/kg/day), Second measurement, hydrochloride
[19] = High dosage (200 mg/kg/day), Third measurement
[20] = Low dosage (100 mg/kg/day), Fifth measurement
[21] = Low dosage (100 mg/kg/day), Fifth measurement, hydrochloride
[22] = Low dosage (100 mg/kg/day), First measurement
[23] = Low dosage (100 mg/kg/day), First measurement, hydrochloride
[24] = Low dosage (100 mg/kg/day), Fourth measurement
[25] = Low dosage (100 mg/kg/day), Fourth measurement, hydrochloride
[26] = Low dosage (100 mg/kg/day), Second measurement
[27] = Low dosage (100 mg/kg/day), Second measurement, hydrochloride
[28] = Low dosage (100 mg/kg/day), Third measurement
[29] = Low dosage (100 mg/kg/day), Third measurement, hydrochloride

Compound: CNCC[C@H](Oc1cccc2ccccc12)c1cccs1 [duloxetine HCl, Duloxetine hydrochloride]
- Mean survival rate (%) ([1]; mean of 4 experiments): 37.5%
- survival rate 0524-10 min ([1]; single experiment): 32.8%
- survival rate 0526-10 min ([1]; single experiment): 53.7%
- survival rate 0529-10 min ([1]; single experiment): 33.2%
- survival rate 0531-10 min ([1]; single experiment): 30.1%
- Increased tumor volume, Mean [2, 13]: 0 mm^3
- Volume, Mean [2, 13]: 0 mm^3
- Increased tumor volume [2, 13]: 0 mm^3
- L (longest diameter of the tumor) [2, 13]: 0 mm
- Volume [2, 13]: 0 mm^3
- W (shortest diameter of the tumor) [2, 13]: 0 mm
- Weight [2, 13]: 20 g
- Weight ([2]; High dosage (200 mg/kg/day), Fifth measurement, hydrochloride): 21 g
- Increased tumor volume, Mean [2, 14]: 78.5 mm^3
- Volume, Mean [2, 14]: 78.5 mm^3
- Weight [2, 14]: 20 g
- L (longest diameter of the tumor) [2, 15]: 6 mm and 8 mm and 7 mm
- W (shortest diameter of the tumor) [2, 15]: 4 mm and 5 mm
- Weight [2, 15]: 19 g and 18.5 g
- Increased tumor volume, Mean [2, 16]: −13.3333 mm^3
- Volume, Mean [2, 16]: 0 mm^3
- L (longest diameter of the tumor) [2, 16]: 0 mm
- Volume [2, 16]: 0 mm^3
- W (shortest diameter of the tumor) [2, 16]: 0 mm
- Weight [2, 16]: 20 g
- Weight ([2]; High dosage (200 mg/kg/day), Fourth measurement, hydrochloride): 21 g
- Increased tumor volume, Mean [2, 17]: −25.8333 mm^3
- Volume, Mean [2, 17]: 52.67 mm^3
- Weight [2, 17]: 20 g
- L (longest diameter of the tumor) [2, 18]: 6 mm and 5 mm and 7 mm
- W (shortest diameter of the tumor) [2, 18]: 4 mm and 3 mm and 5 mm
- Weight [2, 18]: 23 g
- Increased tumor volume, Mean [2, 19]: −39.3333 mm^3
- Volume, Mean [2, 19]: 13.33 mm^3
- Weight ([2]; High dosage (200 mg/kg/day), Third measurement, hydrochloride): 19 g and 18.5 g
- Increased tumor volume, Mean [2, 20]: −8.333 mm^3
- Volume, Mean [2, 20]: 63.33 mm^3
- Weight [2, 20]: 20 g
- L (longest diameter of the tumor) [2, 21]: 6 mm and 4 mm
- W (shortest diameter of the tumor) [2, 21]: 6 mm and 5 mm and 4 mm
- Weight [2, 21]: 22 g
- Increased tumor volume, Mean [2, 22]: 113.1667 mm^3
- Volume, Mean [2, 22]: 113.1667 mm^3
- Increased tumor volume [2, 23]: 87.5 mm^3 and 144 mm^3 and 108 mm^3
- L (longest diameter of the tumor) [2, 23]: 7 mm and 8 mm and 6 mm
- Volume [2, 23]: 87.5 mm^3 and 144 mm^3 and 108 mm^3
- W (shortest diameter of the tumor) [2, 23]: 5 mm and 6 mm
- Weight [2, 23]: 19 g and 18 g
- Increased tumor volume, Mean [2, 24]: −18.1667 mm^3
- Volume, Mean [2, 24]: 71.67 mm^3
- Weight [2, 24]: 20 g
- L (longest diameter of the tumor) [2, 25]: 6 mm and 4 mm
- W (shortest diameter of the tumor) [2, 25]: 6 mm and 4 mm and 5 mm
- Weight [2, 25]: 22 g
- Increased tumor volume, Mean [2, 26]: −4.167 mm^3
- Volume, Mean [2, 26]: 109 mm^3
- Weight [2, 26]: 20 g
- L (longest diameter of the tumor) [2, 27]: 6 mm and 7 mm
- Volume [2, 27]: 75 mm^3 and 126 mm^3
- W (shortest diameter of the tumor) [2, 27]: 5 mm and 6 mm
- Weight [2, 27]: 19 g and 21 g
- Increased tumor volume, Mean [2, 28]: −19.1667 mm^3
- Volume, Mean [2, 28]: 89.83 mm^3
- L (longest diameter of the tumor) [2, 28]: 7 mm
- W (shortest diameter of the tumor) [2, 29]: 6 mm and 4 mm and 5 mm
- Weight [2, 29]: 20.5 g and 23.5 g and 19 g
- inhibitory effect against the tumors ([2]; both low dosage and high dosage, FIG. 2): great inhibitory effect
- weight loss during the experiments ([2]; each group of mice, high or low dosage): no obvious weight loss
- health condition / death during the treatment ([2]; either high or low dosage): not die during the treatment
- effect on tumor volume, high versus low dosage ([2]; high dosage, FIG. 3): better effect
- increase of tumor volume ([2]; low dosage and high dosage, FIG. 3): effectively inhibit the increase of tumor volume
- Survival rate (%) [3]: 36.76%
- Mean (survival rate) ([4]; mean of 4 experiments): 47.9%
- survival rate 0612-20 min ([4]; single experiment): 41.4%
- survival rate 0614-20 min ([4]; single experiment): 53.3%
- survival rate 0616-20 min ([4]; single experiment): 36.2%
- survival rate 0619-20 min ([4]; single experiment): 60.6%
- inhibitory effect against various cancers [5]: significant inhibitory effect
- Survival rate (%) [6]: 48.57%
- Mean (survival rate) ([7]; mean of 4 experiments): 85.2%
- survival rate T24-1-30 min ([7]; single experiment): 81.7%
- survival rate T24-2-20 min ([7]; single experiment): 90.6%
- survival rate T24-3-20 min ([7]; single experiment): 71.4%
- survival rate T24-4-20 min ([7]; single experiment): 97.2%
- Mean survival rate (%) ([8]; HEK 293 normal kidney cells, mean, single experiments not given): 62.4%
- Survival rate (%) ([8]; Kidney (HEK293 normal cells), summary table): 62.44%
- Mean survival rate (%) ([9]; mean of 4 experiments): 49.2%
- survival rate 0510-10 min ([9]; single experiment): 36.1%
- survival rate 0512-10 min ([9]; single experiment): 59.0%
- survival rate 0515-10 min ([9]; single experiment): 61.2%
- survival rate 0517-10 min ([9]; single experiment): 40.5%
- Mean (survival rate) ([10]; mean of 4 experiments): 34.9%
- survival rate 7-3-30 min ([10]; single experiment): 30.9%
- survival rate 7-4-30 min ([10]; single experiment): 41.9%
- survival rate 7-7-30 min ([10]; single experiment): 34.7%
- survival rate -4-30 min ([10]; single experiment): 31.9%
- Survival rate (%) ([11]; Osteosarcoma (U2OS), summary table): 35.09%
- Mean survival rate (%) ([11]; U2OS, mean of 4 experiments): 35.1%
- survival rate 6-26-10 min ([11]; U2OS, single experiment): 26.6%
- survival rate 6-28-10 min ([11]; U2OS, single experiment): 21.5%
- survival rate 6-30-10 min ([11]; U2OS, single experiment): 56.6%
- survival rate 7-3-10 min ([11]; U2OS, single experiment): 35.6%
- Survival rate (%) [12]: 62.21%
